The source of these data is ChEMBL document CHEMBL1201862, “PubChem BioAssay data set” (2004).

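Exposure lasted 48 hours, with cells grown in 96-well plates and compounds tested at five concentrations. GI50 marks 50% less growth.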 Calls of active or inactive are those of the source. Cut-off read from the data, not from the text of the source: active = GI50 up to about 1.1 µM and inactive = higher.

Assay in all cases: inhibition of tumour cell growth, NCI panel, 48 h
For experiment [1], the system named is HOP-92.
For experiment [2], the system named is COLO 205.
Experiment [3] concerns HCT-15.
Experiment [4] relates to TK-10.
Experiment [5] relates to SNB-19.
Experiment [6] has as its system U-251.
Experiment [7] relates to IGROV-1.
The subject of experiment [8] is SF-268.
The test system of experiment [9] is CCRF-CEM.
Experiment [10] has as its system CAKI-1.
The subject of experiment [11] is MOLT-4.
The subject of experiment [12] is K562.
Experiment [13] concerns HL-60.
Experiment [14] deals with HCC 2998.
Experiment [15] concerns OVCAR-4.
In experiment [16] the test system is RXF 393.

`COc1ccc2c(c1)c1c3n2CCNN=C3CCC1`: the GI50 in experiment [1] was > 49.2 µM (inactive); in experiment [2], > 91 µM (inactive); in [3], > 70.1 µM; in experiment [4], > 53 µM (inactive); in experiment [5] it was > 100 µM (inactive); in experiment [6], > 48.5 µM (inactive). Also, the GI50 in experiment [7] is > 85.7 µM (inactive); in experiment [8] it was 88.7 µM (inactive); in experiment [9], 56.1 µM (inactive); in [10], 24.8 µM (inactive); in experiment [11] it was > 37.5 µM (inactive); in experiment [12], > 81.1 µM (inactive). Further, the values for the GI50 in experiment [13], in [14] and in experiment [15] were 5.66 µM (inactive), > 100 µM (inactive) and > 100 µM (inactive), respectively.
For `CC(C)(C)c1ccc(OC2CCO2)cc1` (stereo not drawn), the GI50 was 35.4 µM (inactive) in experiment [1]; 29.4 µM (inactive) in [2]; 20 µM in experiment [3]; 42.4 µM (inactive) in [4]; 52.2 µM (inactive) in experiment [5]; 18.7 µM (inactive) in experiment [6]. Also, the GI50 in experiment [7] is > 100 µM (inactive); in experiment [8] it was 33.6 µM (inactive); in experiment [9], 24.7 µM (inactive); in experiment [10], 38.1 µM (inactive); in experiment [11] it was 38.1 µM (inactive); in experiment [12] it was 17.3 µM (inactive). Besides, the values for the GI50 in [14] and in experiment [15] were 27.5 µM (inactive) and 34.2 µM (inactive), respectively.
Consider `CC(=O)O[C@H]1CC[C@@]2(C)C(=C/C(=N\[N+](=O)[O-])[C@H]3C4CCC([C@H](C)CCCC(C)C)[C@@]4(C)CCC32)C1` (stereo partly drawn), for which the GI50 in experiment [1] is > 100 µM (inactive); in experiment [2], > 100 µM (inactive); in [3], > 100 µM; in [4] it was > 100 µM (inactive); in experiment [5], > 100 µM (inactive); in experiment [7], > 100 µM (inactive). Also, the GI50 in [8], in experiment [10], in experiment [11], in experiment [16], in [12] and in experiment [13] was > 100 µM (inactive) each time. For the same compound, the GI50 in [15] was > 100 µM (inactive).
As to `Oc1cc(-c2ccccc2)c2ccccc2n1`, the GI50 in experiment [1] is 5.62 µM (inactive); in experiment [2], > 100 µM (inactive); in [3] it was 58.9 µM; in [4] it was 38.6 µM (inactive); in experiment [6] it was 69.5 µM (inactive); in experiment [7], 23.9 µM (inactive). The GI50 in experiment [8] is 52.6 µM (inactive); in [9], 60.8 µM (inactive); in experiment [10], 13.4 µM (inactive); in experiment [11] it was 37.8 µM (inactive); in [16], 36.2 µM (inactive); in [12], 65.5 µM (inactive). Moreover, the values for the GI50 in [13] and in [15] were 88.1 µM (inactive) and 73.6 µM (inactive), respectively.
`COc1cc(/C=C\c2ccccn2)cc(OC)c1OC`: the GI50 in experiment [1] is 16.4 µM (inactive); in [2], 66.1 µM (inactive); in experiment [3] it was 78.3 µM; in [4], > 100 µM (inactive); in experiment [5], > 100 µM (inactive); in [6], > 100 µM (inactive). Besides, the GI50 in experiment [7] is > 100 µM (inactive); in experiment [8], > 100 µM (inactive); in [9] it was > 100 µM (inactive); in experiment [10], > 100 µM (inactive); in experiment [11], 61.9 µM (inactive); in [16] it was > 100 µM (inactive). Further, the GI50 in experiment [12] is 32.1 µM (inactive); in experiment [13] it was 31 µM (inactive); in experiment [15] it was > 100 µM (inactive).
As for `CCCCc1c2c(nc3c1CCC/C3=C\c1ccccc1)/C(=C/c1ccccc1)CCC2`, the GI50 in [2] is > 100 µM (inactive); in experiment [3], > 100 µM; in experiment [4], > 100 µM (inactive); in experiment [5], > 100 µM (inactive); in experiment [6] it was > 100 µM (inactive); in experiment [7], > 100 µM (inactive). In addition, the GI50 in [8], in [9], in experiment [11], in [12], in [13] and in experiment [14] was > 100 µM (inactive) in each case.
In the case of `Oc1cc(C2OCCCO2)cc(O)c1O`, the GI50 was > 100 µM (inactive) in [2]; > 100 µM in [3]; > 100 µM (inactive) in [4]; > 100 µM (inactive) in [5]; > 100 µM (inactive) in experiment [6]; > 100 µM (inactive) in experiment [7]. Besides, the GI50 in experiment [8], in experiment [9], in experiment [10], in experiment [11], in experiment [12] and in [13] was > 100 µM (inactive) each time. Besides, the GI50 in experiment [14] and in experiment [15] was > 100 µM (inactive) each time.
Consider `Cc1ccc(C)c2sc3cc(=O)ccc-3nc12`, for which the GI50 was 28.1 µM (inactive) in experiment [1]; 63.8 µM (inactive) in experiment [2]; 29.4 µM in experiment [3]; 26.3 µM (inactive) in experiment [4]; 91.6 µM (inactive) in experiment [5]; 35.7 µM (inactive) in experiment [6]. The GI50 in experiment [7] was 82 µM (inactive); in experiment [8], 43.5 µM (inactive); in experiment [9], 14.9 µM (inactive); in [10] it was 22 µM (inactive); in [11], 15 µM (inactive); in [12] it was 16 µM (inactive). Moreover, the GI50 in experiment [13] was 10.5 µM (inactive); in experiment [14], 44.1 µM (inactive); in [15], 21.1 µM (inactive).
Consider `CCOC(=O)C1=C(Nc2ccc(Br)cc2)OC/C1=N\NC(=O)c1ccccc1O`, for which the GI50 in experiment [2] is 38.9 µM (inactive); in [3], 11.7 µM; in experiment [4] it was > 34.8 µM (inactive); in experiment [5], 10.9 µM (inactive); in experiment [6] it was 9.23 µM (inactive); in experiment [7], 6.46 µM (inactive). In addition, the GI50 in [8] is 12 µM (inactive); in experiment [9] it was 9.66 µM (inactive); in experiment [10] it was 6.49 µM (inactive); in experiment [11], 11.4 µM (inactive); in [16] it was 1.29 µM (inactive); in [12], 7.06 µM (inactive). Besides, the GI50 in experiment [13] was 20.4 µM (inactive); in experiment [14], 20.3 µM (inactive); in experiment [15], 26.2 µM (inactive).
Regarding `O=C(O)C1C2CCC(O2)C1C(=O)N1CCCCC1` (stereo not drawn), the GI50 in experiment [1] is 2.38 µM (inactive); in experiment [2], 1.95 µM (inactive); in [3], 12.1 µM; in experiment [4], 2.99 µM (inactive); in experiment [5], 15.5 µM (inactive); in experiment [6] it was 4.2 µM (inactive). The GI50 was 30.5 µM (inactive) in experiment [7]; 13.2 µM (inactive) in [8]; 5.06 µM (inactive) in experiment [11]; 2.2 µM (inactive) in experiment [16]; 4.11 µM (inactive) in experiment [14]; 10.8 µM (inactive) in [15].
With `COc1ccccc1/N=N/C(C(=O)c1ccccc1)C(=O)c1ccccc1`, the GI50 in experiment [2] is 33.3 µM (inactive); in [3] it was 14.9 µM; in [4], 50.2 µM (inactive); in [5], 17.2 µM (inactive); in experiment [6] it was 18.5 µM (inactive); in experiment [7], 27 µM (inactive). Moreover, the GI50 in [8] was 21.1 µM (inactive); in [9] it was 7.91 µM (inactive); in [10] it was 25.2 µM (inactive); in experiment [11], 9.48 µM (inactive); in experiment [12] it was 16.9 µM (inactive); in experiment [13] it was 7.8 µM (inactive). The GI50 in experiment [14] is 27.1 µM (inactive); in experiment [15], 9.53 µM (inactive).
For `[N-]=[N+]=Nc1ccc(CCN2CCN(c3cccc(C(F)(F)F)c3)CC2)cc1I`, the GI50 in experiment [2] was > 100 µM (inactive); in [3] it was 25.2 µM; in experiment [4], > 100 µM (inactive); in [5] it was > 100 µM (inactive); in experiment [6], > 100 µM (inactive); in experiment [8], > 100 µM (inactive). The GI50 in experiment [9] is 54.1 µM (inactive); in experiment [10], 40.1 µM (inactive); in [11], 40.4 µM (inactive); in [16] it was 33.1 µM (inactive); in experiment [12], 52.6 µM (inactive); in experiment [13], 12.8 µM (inactive). In addition, in experiment [15], the GI50 was > 100 µM (inactive).
For the compound `O=C(CC(=O)Nc1ccc(Cl)cc1)NNCC(=O)Nc1nc(-c2ccccc2)cs1`, the GI50 in experiment [2], in experiment [4], in experiment [5], in experiment [6], in [7] and in [8] was > 100 µM (inactive) throughout. For the same compound, the GI50 is > 100 µM (inactive) in experiment [9]; > 100 µM (inactive) in experiment [11]; > 100 µM (inactive) in [16]; 72.4 µM (inactive) in experiment [12]; > 100 µM (inactive) in experiment [13]; > 100 µM (inactive) in [14]. In experiment [15], the GI50 is > 100 µM (inactive).
As to `Cn1nc(-c2ccccc2)c(C(=O)/C=C/c2ccccc2)c(N2CCCCC2)c1=O`, the GI50 in experiment [1] was 7.31 µM (inactive); in experiment [2], 9.98 µM (inactive); in experiment [3], 17.7 µM; in experiment [4], > 100 µM (inactive); in [5] it was > 100 µM (inactive); in experiment [6] it was > 100 µM (inactive). The GI50 in experiment [7] is > 100 µM (inactive); in experiment [8], 23.7 µM (inactive); in experiment [9] it was 3.72 µM (inactive); in [10] it was 22.2 µM (inactive); in [11], 2.36 µM (inactive); in experiment [16], 12.8 µM (inactive). For the same compound, the GI50 in experiment [12] is 4.7 µM (inactive); in [13], 2.72 µM (inactive).
